From patent US20260022142A1, “MACROCYCLIC IMMUNOMODULATORS” (Bristol-Myers Squibb Company, priority 2022, published 2026)
Bridge positions count the residues as written; N and C are the ends. Square brackets hold non-standard residues; d marks the D form. Peptide text beside a SMILES is read from it. * marks the point of attachment. ξ: configuration not given here. Bip = N[C@@H](Cc1ccc(-c2ccccc2)cc1)C(=O)O; Phe(3-Me) = Cc1cccc(C[C@H](N)C(=O)O)c1; hArg = N=C(N)NCCCC[C@H](N)C(=O)O; Cha = N[C@@H](CC1CCCCC1)C(=O)O; Cit = NC(=O)NCCC[C@H](N)C(=O)O; aThr = C[C@H](O)[C@H](N)C(=O)O; Thr(3ξ) = CC(O)[C@H](N)C(=O)O; 12Ado = NCCCCCCCCCCCC(=O)O; Carboxymethyl = O=C(O)C*; Orn = NCCC[C@H](N)C(=O)O; Aun = NCCCCCCCCCCC(=O)O; Dab = NCC[C@H](N)C(=O)O; AEEA = NCCOCCOCC(=O)O; Sar = CNCC(=O)O

Target: T1, PD-1/PD-L1 interaction (PE-labeled human PD-L1-Ig binding to Jurkat cell line over-expressing human PD-1) (Homo sapiens, UniProt Q15116)
T1 construct: expressed in transfected cells; host or cells: Jurkat
T1 sequence (Q15116 25-288): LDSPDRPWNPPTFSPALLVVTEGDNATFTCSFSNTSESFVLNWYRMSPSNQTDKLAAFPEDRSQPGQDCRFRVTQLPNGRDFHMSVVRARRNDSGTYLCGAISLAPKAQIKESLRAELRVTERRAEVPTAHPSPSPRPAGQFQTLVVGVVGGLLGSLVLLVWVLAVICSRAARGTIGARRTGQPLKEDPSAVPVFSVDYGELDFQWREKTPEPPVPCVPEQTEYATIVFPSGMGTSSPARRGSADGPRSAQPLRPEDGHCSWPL
Assay: Jurkat-PD-1 Cell Binding High-Content Screening Assay (CBA)
Type: cell-based
Conditions: Jurkat cell line over-expressing human PD-1; PE-labeled PD-L1-Ig 20 nM final; read-out: Jurkat hPD1-PDL1 IC50
Summary of the method: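 Human PD-L1-Ig carrying a covalent PE label on its Ig tag serves as the probe, applied at 20 nM final to compound-treated (2 h, 37° C) Jurkat-hPD-1 cells in medium with 10% fetal calf serum. After one hour, fixation and nuclear staining precede high-content image analysis.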

Compound: Cc1cccc(C[C@@H]2NC(=O)[C@H](CC(=O)O)NC(=O)[C@H](Cc3ccc(OCC(=O)O)cc3)NC(=O)[C@H](CCCCNC(=N)N)NC(=O)CSC[C@@H](C(=O)N[C@@H](CCN)C(=O)NCCCCCCCCCCC(=O)O)NC(=O)[C@H](CCCN)NC(=O)[C@H](C(C)C)NC(=O)[C@H](CC3CCCCC3)NC(=O)[C@H](CCN)NC(=O)[C@@H](CC(C)C)NC(=O)[C@H](CCN)NC(=O)[C@H](CCC(N)=O)NC(=O)[C@H](Cc3ccc(-c4ccccc4)cc3)NC(=O)[C@H](C(C)C)NC2=O)c1 [Compound 3359] ({CH2CO}-[hArg]Y(Carboxymethyl)D[Phe(3-Me)]V[Bip]Q[Dab][dL][Dab][Cha]V[Orn]C[Dab][Aun]-OH; thioether N-14)
- IC50: 4.3 nM

Compound: Cc1cccc(C[C@@H]2NC(=O)[C@H](CC(=O)O)NC(=O)[C@H](Cc3ccc(OCC(=O)O)cc3)NC(=O)[C@H](CCCNC(=N)N)NC(=O)CSC[C@@H](C(=O)N[C@@H](CCN)C(=O)NCCCCCCCCCCC(=O)O)NC(=O)[C@H](CCCNC(N)=O)NC(=O)[C@H](C(C)C)NC(=O)[C@H](CC3CCCCC3)NC(=O)[C@H](CCN)NC(=O)[C@@H](CC(C)C)NC(=O)[C@H](CCN)NC(=O)[C@H](C(C)C)NC(=O)[C@H](Cc3ccc(-c4ccccc4)cc3)NC(=O)[C@H](C(C)C)NC2=O)c1 [Compound 3360] ({CH2CO}-RY(Carboxymethyl)D[Phe(3-Me)]V[Bip]V[Dab][dL][Dab][Cha]V[Cit]C[Dab][Aun]-OH; thioether N-14)
- IC50: 8.1 nM

Compound: CC(C)C[C@H]1NC(=O)[C@H](CCCN)NC(=O)[C@H](C(C)C)NC(=O)[C@H](Cc2ccc(-c3ccccc3)cc2)NC(=O)[C@H](C(C)C)NC(=O)[C@H](Cc2c[nH]c3ccccc23)NC(=O)[C@H](CC(=O)O)NC(=O)[C@H](Cc2ccc(OCC(=O)O)cc2)NC(=O)[C@H](CCCCNC(=N)N)NC(=O)CSC[C@@H](C(=O)N(C)CC(=O)NCCOCCOCC(=O)N[C@@H](CCCN)C(=O)NCCCCCCCCCCCC(=O)O)NC(=O)[C@H](CO)NC(=O)[C@H](C(C)C)NC(=O)[C@H](CC2CCCCC2)NC(=O)[C@H](CCN)NC1=O [Compound 3361] ({CH2CO}-[hArg]Y(Carboxymethyl)DWV[Bip]V[Orn][dL][Dab][Cha]VSC[Sar][AEEA][Orn][12Ado]-OH; thioether N-14)
- IC50: 18.7 nM

Compound: Cc1cccc(C[C@@H]2NC(=O)[C@H](CC(=O)O)NC(=O)[C@H](Cc3ccc(OCC(=O)O)cc3)NC(=O)[C@H](CCCNC(=N)N)NC(=O)CSC[C@@H](C(=O)N[C@@H](CCN)C(=O)NCCCCCCCCCCC(=O)O)NC(=O)[C@H](C(C)O)NC(=O)[C@H](C(C)C)NC(=O)[C@H](CC3CCCCC3)NC(=O)[C@H](CCN)NC(=O)[C@@H](CC(C)C)NC(=O)[C@H](CCC(N)=O)NC(=O)[C@H](Cc3ccc(O)cc3)NC(=O)[C@H](Cc3ccc(-c4ccccc4)cc3)NC(=O)[C@H](Cc3ccc(O)cc3)NC2=O)c1 (stereo partly drawn) [Compound 3370] ({CH2CO}-RY(Carboxymethyl)D[Phe(3-Me)]Y[Bip]YQ[dL][Dab][Cha]V[Thr(3ξ)]C[Dab][Aun]-OH; thioether N-14)
- IC50: 12.6 nM

Compound: Cc1cccc(C[C@@H]2NC(=O)[C@H](CC(=O)O)NC(=O)[C@H](Cc3ccc(OCC(=O)O)cc3)NC(=O)[C@H](CCCNC(=N)N)NC(=O)CSC[C@@H](C(=O)N[C@@H](CCN)C(=O)NCCCCCCCCCCC(=O)O)NC(=O)[C@H](C(C)O)NC(=O)[C@H](C(C)C)NC(=O)[C@H](CC3CCCCC3)NC(=O)[C@H](CCN)NC(=O)[C@@H](CC(C)C)NC(=O)[C@H](CCCNC(N)=O)NC(=O)[C@H](Cc3ccc(OCC(=O)O)cc3)NC(=O)[C@H](Cc3ccc(-c4ccccc4)cc3)NC(=O)[C@H](Cc3ccc(O)cc3)NC2=O)c1 (stereo partly drawn) [Compound 3371] ({CH2CO}-RY(Carboxymethyl)D[Phe(3-Me)]Y[Bip]Y(Carboxymethyl)[Cit][dL][Dab][Cha]V[Thr(3ξ)]C[Dab][Aun]-OH; thioether N-14)
- IC50: 9.4 nM

Compound: Cc1cccc(C[C@@H]2NC(=O)[C@H](CC(=O)O)NC(=O)[C@H](Cc3ccc(OCC(=O)O)cc3)NC(=O)[C@H](CCCNC(=N)N)NC(=O)CSC[C@@H](C(=O)N[C@@H](CCN)C(=O)NCCCCCCCCCCC(=O)O)NC(=O)[C@H](CCCNC(N)=O)NC(=O)[C@H](C(C)C)NC(=O)[C@H](CC3CCCCC3)NC(=O)[C@H](CCN)NC(=O)[C@@H](CC(C)C)NC(=O)[C@H](CCC(N)=O)NC(=O)[C@H](Cc3ccc(OCC(=O)O)cc3)NC(=O)[C@H](Cc3ccc(-c4ccccc4)cc3)NC(=O)[C@H](CC(C)C)NC2=O)c1 [Compound 3372] ({CH2CO}-RY(Carboxymethyl)D[Phe(3-Me)]L[Bip]Y(Carboxymethyl)Q[dL][Dab][Cha]V[Cit]C[Dab][Aun]-OH; thioether N-14)
- IC50: 11.6 nM

Compound: Cc1cccc(C[C@@H]2NC(=O)[C@H](CC(=O)O)NC(=O)[C@H](Cc3ccc(OCC(=O)O)cc3)NC(=O)[C@H](CCCNC(=N)N)NC(=O)CSC[C@@H](C(=O)N[C@@H](CCN)C(=O)NCCCCCCCCCCC(=O)O)NC(=O)[C@H](C(C)O)NC(=O)[C@H](C(C)C)NC(=O)[C@H](CC3CCCCC3)NC(=O)[C@H](CCN)NC(=O)[C@@H](CC(C)C)NC(=O)[C@H](CCC(=O)O)NC(=O)[C@H](Cc3ccc(O)cc3)NC(=O)[C@H](Cc3ccc(-c4ccccc4)cc3)NC(=O)[C@H](Cc3ccc(O)cc3)NC2=O)c1 (stereo partly drawn) [Compound 3373] ({CH2CO}-RY(Carboxymethyl)D[Phe(3-Me)]Y[Bip]YE[dL][Dab][Cha]V[Thr(3ξ)]C[Dab][Aun]-OH; thioether N-14)
- IC50: 27.4 nM

Compound: Cc1cccc(C[C@@H]2NC(=O)[C@H](CC(=O)O)NC(=O)[C@H](Cc3ccc(OCC(=O)O)cc3)NC(=O)[C@H](CC(N)=O)NC(=O)CSC[C@@H](C(=O)N[C@@H](CCN)C(=O)NCCCCCCCCCCC(=O)O)NC(=O)[C@H](C(C)O)NC(=O)[C@H](C(C)C)NC(=O)[C@H](CC3CCCCC3)NC(=O)[C@H](CCN)NC(=O)[C@@H](CC(C)C)NC(=O)[C@H](CCN)NC(=O)[C@H](Cc3ccc(O)cc3)NC(=O)[C@H](Cc3ccc(-c4ccccc4)cc3)NC(=O)[C@H](CC(C)C)NC2=O)c1 (stereo partly drawn) [Compound 3374] ({CH2CO}-NY(Carboxymethyl)D[Phe(3-Me)]L[Bip]Y[Dab][dL][Dab][Cha]V[Thr(3ξ)]C[Dab][Aun]-OH; thioether N-14)
- IC50: 31.6 nM

Compound: Cc1cccc(C[C@@H]2NC(=O)[C@H](CC(=O)O)NC(=O)[C@H](Cc3ccc(OCC(=O)O)cc3)NC(=O)[C@H](CC(N)=O)NC(=O)CSC[C@@H](C(=O)NCCCCCCCCCCC(=O)O)NC(=O)[C@H](CCC(=O)O)NC(=O)[C@H](C(C)C)NC(=O)[C@H](CC3CCCCC3)NC(=O)[C@H](CCN)NC(=O)[C@@H](CC(C)C)NC(=O)[C@H](CCCN)NC(=O)[C@H](Cc3ccc(O)cc3)NC(=O)[C@H](Cc3ccc(-c4ccccc4)cc3)NC(=O)[C@H](C(C)C)NC2=O)c1 [Compound 3375] ({CH2CO}-NY(Carboxymethyl)D[Phe(3-Me)]V[Bip]Y[Orn][dL][Dab][Cha]VEC[Aun]-OH; thioether N-14)
- IC50: 12.3 nM

Compound: Cc1cccc(C[C@@H]2NC(=O)[C@H](CC(=O)O)NC(=O)[C@H](Cc3ccc(OCC(=O)O)cc3)NC(=O)[C@H](CC(N)=O)NC(=O)CSC[C@@H](C(=O)N[C@@H](CCC(=O)O)C(=O)NCCCCCCCCCCC(=O)O)NC(=O)[C@H]([C@H](C)O)NC(=O)[C@H](C(C)C)NC(=O)[C@H](CC3CCCCC3)NC(=O)[C@H](CCN)NC(=O)[C@@H](CC(C)C)NC(=O)[C@H](CCCN)NC(=O)[C@H](Cc3ccc(O)cc3)NC(=O)[C@H](Cc3ccc(-c4ccccc4)cc3)NC(=O)[C@H](C(C)C)NC2=O)c1 [Compound 3376] ({CH2CO}-NY(Carboxymethyl)D[Phe(3-Me)]V[Bip]Y[Orn][dL][Dab][Cha]V[aThr]CE[Aun]-OH; thioether N-14)
- IC50: 14.8 nM

Compound: Cc1cccc(C[C@@H]2NC(=O)[C@H](CC(=O)O)NC(=O)[C@H](Cc3ccc(OCC(=O)O)cc3)NC(=O)[C@H](CC(N)=O)NC(=O)CSC[C@@H](C(=O)N[C@@H](CCN)C(=O)NCCCCCCCCCCC(=O)O)NC(=O)[C@H]([C@H](C)O)NC(=O)[C@H](C(C)C)NC(=O)[C@H](CC3CCCCC3)NC(=O)[C@H](CCN)NC(=O)[C@@H](CC(C)C)NC(=O)[C@H](CCCN)NC(=O)[C@H](Cc3ccc(O)cc3)NC(=O)[C@H](Cc3ccc(-c4ccccc4)cc3)NC(=O)[C@H](C(C)C)NC2=O)c1 [Compound 3377] ({CH2CO}-NY(Carboxymethyl)D[Phe(3-Me)]V[Bip]Y[Orn][dL][Dab][Cha]V[aThr]C[Dab][Aun]-OH; thioether N-14)
- IC50: 13.5 nM

Compound: Cc1cccc(C[C@@H]2NC(=O)[C@H](CC(=O)O)NC(=O)[C@H](Cc3ccc(OCC(=O)O)cc3)NC(=O)[C@H](CC(N)=O)NC(=O)CSC[C@@H](C(=O)N[C@@H](CCN)C(=O)NCCCCCCCCCCC(=O)O)NC(=O)[C@H](CCCNC(N)=O)NC(=O)[C@H](C(C)C)NC(=O)[C@H](CC3CCCCC3)NC(=O)[C@H](CCN)NC(=O)[C@@H](CC(C)C)NC(=O)[C@H](CCCN)NC(=O)[C@H](Cc3ccc(O)cc3)NC(=O)[C@H](Cc3ccc(-c4ccccc4)cc3)NC(=O)[C@H](C(C)C)NC2=O)c1 [Compound 3378] ({CH2CO}-NY(Carboxymethyl)D[Phe(3-Me)]V[Bip]Y[Orn][dL][Dab][Cha]V[Cit]C[Dab][Aun]-OH; thioether N-14)
- IC50: 18.1 nM

Compound: Cc1cccc(C[C@@H]2NC(=O)[C@H](CC(=O)O)NC(=O)[C@H](Cc3ccc(OCC(=O)O)cc3)NC(=O)[C@H](CC(N)=O)NC(=O)CSC[C@@H](C(=O)N[C@@H](CCN)C(=O)NCCCCCCCCCCC(=O)O)NC(=O)[C@H](CCC(=O)O)NC(=O)[C@H](C(C)C)NC(=O)[C@H](CC3CCCCC3)NC(=O)[C@H](CCN)NC(=O)[C@@H](CC(C)C)NC(=O)[C@H](CCCN)NC(=O)[C@H](Cc3ccc(O)cc3)NC(=O)[C@H](Cc3ccc(-c4ccccc4)cc3)NC(=O)[C@H](C(C)C)NC2=O)c1 [Compound 3379] ({CH2CO}-NY(Carboxymethyl)D[Phe(3-Me)]V[Bip]Y[Orn][dL][Dab][Cha]VEC[Dab][Aun]-OH; thioether N-14)
- IC50: 9.5 nM
